Test [1] concerns trained sensory panel. Description: Sensory panel evaluation of MSG-IMP mixture combined with Formulas II-IV. In kind it is in vivo. Particulars: 0.01% MSG and 0.005% IMP; for effect on umami flavor of the MSG-IMP mixture: summary, no concentration stated. The text has this:
The MSG-inosine monophosphate (IMP) mixture (0.01% MSG and 0.005% IMP), an umami composition, was combined with Formulas II-IV at different concentrations and evaluated by a trained sensory panel.

Test [2] concerns trained sensory panel. The test can be described thus: Sensory panel evaluation of MSG (0.02%) combined with Formula II. Format: in vivo. Here is the method: The flavor compositions of MSG (0.02%) combined with (2E,4E)-N-phenethylundeca-2,4-dien-8,10-diynamide (Formula II) at different concentrations were evaluated by a trained sensory panel using an intensity scale of 0 to 5, where 0=none, 1=minimal, 3=moderate, and 5=intense. Averaged sensory scores were reported in the following: […]

For `C#CC#CCC/C=C/C=C/C(=O)NCCc1ccccc1` [Formula II, (2E,4E)-N-phenethylundeca-2,4-dien-8,10-diynamide], the “Flavor Profile: effect on umami flavor of the MSG-IMP mixture” value in the test on trained sensory panel [1] (amide at 500 ppb) was “strongest enhancement”. Also, the “effect on umami flavor of the MSG-IMP mixture” value in the test with trained sensory panel [1] is listed as “enhanced the umami flavor of the MSG-IMP mixture”. The “effect on umami flavor of MSG” value in the test with trained sensory panel [2] (summary over the concentrations tested) was “enhanced the umami flavor of MSG”.

As to `C#CC#CCC/C=C/C=C/C(=O)NCC(C)CC` (stereo not drawn) [Formula IV, (2E,4E)-N-(2-methylbutyl)undeca-2,4-dien-8,10-diynamide], the “effect on umami flavor of the MSG-IMP mixture” value in the test with trained sensory panel [1] was “enhanced the umami flavor of the MSG-IMP mixture”.

Regarding `N[C@@H](CCC(=O)O)C(=O)[O-].[Na+]` [MSG, monosodium glutamate], the “Flavor Profile” value with trained sensory panel [2] (Formula II 0) is “umami”. In addition, in the test on trained sensory panel [2] (Formula II 0, averaged sensory score, scale 0 to 5 (0=none, 1=minimal, 3=moderate, 5=intense)), the “Flavor Intensity” value is recorded as 1.0.
